Patent publication US20260262643A1, “HERBICIDAL BENZOXAZINES” (FMC CORPORATION, priority 2022, published 2026)

Tests used:
goosegrass [1] = experiment: Test A preemergence; format: in vivo, Eleusine indica; settings: 1000 g ai/ha, 0 to 100 scale (0 no effect, 100 complete control), 10 days
Excerpt: (§1) Seeds of plant species selected from barnyardgrass (Echinochloa crusgalli), blackgrass (Alopecurus myosuroides), corn (Zea mays), foxtail, giant (giant foxtail, Setaria faberi), goosegrass (Eleusine indica), kochia (Bassia scoparia), oat, wild (wild oat, Avena fatua), pigweed, palmer (palmer amaranth, palmer pigweed, Amaranthus palmeri), Pigweed, Redroot (redroot pigweed, Amaranthus retroflexus), ragweed (common ragweed, Ambrosia artemisiifolia), ryegrass, Italian (italian ryegrass, Lolium multiflorum), soybean (Glycine max), and wheat (Triticum aestivum) were planted into a blend of loam soil and sand and treated preemergence with a directed soil spray using test chemicals formulated in a non-phytotoxic solvent mixture which included a surfactant. At the same time, plants selected from these crops and weed species and also galium (catchweed bedstraw, Galium aparine) and horseweed (Erigeron canadensis) were planted in pots containing the same blend of loam soil and sand and treated with postemergence applications of test chemicals formulated in the same manner. Plants ranged in height from 2 to 10 cm and were in the one- to two-leaf stage for the postemergence treatment. Treated plants and untreated controls were maintained in a greenhouse for 10 days, after which time all treated plants were compared to untreated controls and visually evaluated for injury. Plant response ratings, summarized in Table A, are based on a 0 to 100 scale where 0 is no effect and 100 is complete control. A dash (-) response means no test result.

kochia [2] = experiment: Test A preemergence; format: in vivo, Bassia scoparia; settings: 1000 g ai/ha, 0 to 100 scale (0 no effect, 100 complete control), 10 days
Excerpt: as §1

horseweed = experiment: Test A postemergence; format: in vivo, Erigeron canadensis; settings: 1000 g ai/ha, Postemergence; 0 to 100 scale
Excerpt: as §1

foxtail, giant [3] = experiment: Test A preemergence; format: in vivo, Setaria faberi; settings: 1000 g ai/ha, 0 to 100 scale (0 no effect, 100 complete control), 10 days
Excerpt: as §1

foxtail, giant [4] = experiment: Test A postemergence; format: in vivo, Setaria faberi; settings: 1000 g ai/ha, Postemergence; 0 to 100 scale
Excerpt: as §1

kochia [5] = experiment: Test A postemergence; format: in vivo, Bassia scoparia; settings: 1000 g ai/ha, Postemergence; 0 to 100 scale
Excerpt: as §1

galium = experiment: Test A postemergence; format: in vivo, Galium aparine; settings: 1000 g ai/ha, Postemergence; 0 to 100 scale
Excerpt: as §1

goosegrass [6] = experiment: Test A postemergence; format: in vivo, Eleusine indica; settings: 1000 g ai/ha, Postemergence; 0 to 100 scale
Excerpt: as §1

ryegrass, Italian [7] = experiment: Test A preemergence; format: in vivo, Lolium multiflorum; settings: 1000 g ai/ha, 0 to 100 scale (0 no effect, 100 complete control), 10 days
Excerpt: as §1

ryegrass, Italian [8] = experiment: Test A postemergence; format: in vivo, Lolium multiflorum; settings: 1000 g ai/ha, Postemergence; 0 to 100 scale
Excerpt: as §1

pigweed, palmer [9] = experiment: Test A preemergence; format: in vivo, Amaranthus palmeri; settings: 1000 g ai/ha, 0 to 100 scale (0 no effect, 100 complete control), 10 days
Excerpt: as §1

pigweed, palmer [10] = experiment: Test A postemergence; format: in vivo, Amaranthus palmeri; settings: 1000 g ai/ha, Postemergence; 0 to 100 scale
Excerpt: as §1

blackgrass [11] = experiment: Test A preemergence; format: in vivo, Alopecurus myosuroides; settings: 1000 g ai/ha, 0 to 100 scale (0 no effect, 100 complete control), 10 days
Excerpt: as §1

blackgrass [12] = experiment: Test A postemergence; format: in vivo, Alopecurus myosuroides; settings: 1000 g ai/ha, Postemergence; 0 to 100 scale
Excerpt: as §1

ragweed = experiment: Test A postemergence; format: in vivo, Ambrosia artemisiifolia; settings: 1000 g ai/ha, Postemergence; 0 to 100 scale
Excerpt: as §1

Cc1nc(-c2cccc(C(=O)N3C[C@H](C)Oc4c(Cl)cccc43)c2)cs1 [Compound 125]
Plant response rating, Goosegrass (goosegrass [1]): 20
Plant response rating, Kochia (kochia [2]): 0
Plant response rating, Horseweed (horseweed): 0
Plant response rating, Foxtail, Giant (foxtail, giant [3]): 20
Plant response rating, Foxtail, Giant (foxtail, giant [4]): 20
Plant response rating, Kochia (kochia [5]): 50
Plant response rating, Galium (galium): 40
Plant response rating, Goosegrass (goosegrass [6]): 0
Plant response rating, Ryegrass, Italian (ryegrass, Italian [7]): 60
Plant response rating, Ryegrass, Italian (ryegrass, Italian [8]): 0
Plant response rating, Pigweed, Palmer (pigweed, palmer [9]): 30
Plant response rating, Pigweed, Palmer (pigweed, palmer [10]): 40
Plant response rating, Blackgrass (blackgrass [11]): 0
Plant response rating, Blackgrass (blackgrass [12]): 20
Plant response rating, Ragweed (ragweed): 0
